From patent publication US20160009693A1, “HERBICIDAL COMPOUNDS” (SYNGENTA LIMITED, priority 2013, published 2016)

How the values were obtained:
Assay type in all cases: in vivo
Conditions in all cases: applied at 1000 g/h, evaluated after 13 days
[1] = system: Echinochloa crus-galli (ECHCG); assay: Herbicidal glasshouse test, pre-emergence, ECHCG
Description: (§1) Seeds of a variety of test species are sown in standard soil in pots (Alopecurus myosuroides (ALOMY), Setaria faberi (SETFA), Echinochloa crus-galli (ECHCG), Solanum nigrum (SOLNI), Amaranthus retoflexus (AMARE), Ipomoea hederacea (IPOHE)). After cultivation for one day (pre-emergence) or after 8 days cultivation (post-emergence) under controlled conditions in a glasshouse (at 24/16° C., day/night; 14 hours light; 65% humidity), the plants are sprayed with an aqueous spray solution derived from the formulation of the technical active ingredient in acetone / water (50:50) solution containing 0.5% Tween 20 (polyoxyethelyene sorbitan monolaurate, CAS RN 9005-64-5). […] The test plants are then grown in a glasshouse under controlled conditions in a glasshouse (at 24/16° C., day/night; 14 hours light; 65% humidity) and watered twice daily. After 13 days for pre and post-emergence, the test is evaluated for the percentage damage caused to the plant. The biological activities are shown in the following table on a five point scale (5=80-100%; 4=60-79%; 3=40-59%; 2=20-39%; 1=0-19%).

[2] = system: Echinochloa crus-galli (ECHCG); assay: Herbicidal glasshouse test, post-emergence, ECHCG
Description: as §1

Solanum nigrum (SOLNI) [3] = assay: Herbicidal glasshouse test, post-emergence, SOLNI
Description: as §1

Solanum nigrum (SOLNI) [4] = assay: Herbicidal glasshouse test, pre-emergence, SOLNI
Description: as §1

Setaria faberi (SETFA) [5] = assay: Herbicidal glasshouse test, post-emergence, SETFA
Description: as §1

[6] = system: Ipomoea hederacea (IPOHE); assay: Herbicidal glasshouse test, pre-emergence, IPOHE
Description: as §1

[7] = system: Amaranthus retoflexus (AMARE); assay: Herbicidal glasshouse test, pre-emergence, AMARE
Description: as §1

[8] = system: Ipomoea hederacea (IPOHE); assay: Herbicidal glasshouse test, post-emergence, IPOHE
Description: as §1

[9] = system: Alopecurus myosuroides (ALOMY); assay: Herbicidal glasshouse test, post-emergence, ALOMY
Description: as §1

Setaria faberi (SETFA) [10] = assay: Herbicidal glasshouse test, pre-emergence, SETFA
Description: as §1

[11] = system: Amaranthus retoflexus (AMARE); assay: Herbicidal glasshouse test, post-emergence, AMARE
Description: as §1

[12] = system: Alopecurus myosuroides (ALOMY); assay: Herbicidal glasshouse test, pre-emergence, ALOMY
Description: as §1

Cn1nnnc1NC(=O)c1nn(C)c(=O)n(-c2ccc(F)cc2Cl)c1=O [Compound 1.021]
PRE Application ECHCG, percentage damage (five point scale) [1]: 5 (5=80-100%) | POST Application ECHCG, percentage damage (five point scale) [2]: 5 (5=80-100%) | POST Application SOLNI, percentage damage (five point scale) (Solanum nigrum (SOLNI) [3]): 5 (5=80-100%) | PRE Application SOLNI, percentage damage (five point scale) (Solanum nigrum (SOLNI) [4]): 5 (5=80-100%) | POST Application SETFA, percentage damage (five point scale) (Setaria faberi (SETFA) [5]): 5 (5=80-100%) | PRE Application IPOHE, percentage damage (five point scale) [6]: 5 (5=80-100%) | PRE Application AMARE, percentage damage (five point scale) [7]: 5 (5=80-100%) | POST Application IPOHE, percentage damage (five point scale) [8]: 5 (5=80-100%) | POST Application ALOMY, percentage damage (five point scale) [9]: 5 (5=80-100%) | PRE Application SETFA, percentage damage (five point scale) (Setaria faberi (SETFA) [10]): 5 (5=80-100%) | POST Application AMARE, percentage damage (five point scale) [11]: 5 (5=80-100%) | PRE Application ALOMY, percentage damage (five point scale) [12]: 5 (5=80-100%)

Cn1nnnc1NC(=O)c1nn(C)c(=O)n(Cc2ccccc2)c1=O [Compound 1.022]
PRE Application ECHCG, percentage damage (five point scale) [1]: 5 (5=80-100%) | POST Application ECHCG, percentage damage (five point scale) [2]: 5 (5=80-100%) | POST Application SOLNI, percentage damage (five point scale) (Solanum nigrum (SOLNI) [3]): 5 (5=80-100%) | PRE Application SOLNI, percentage damage (five point scale) (Solanum nigrum (SOLNI) [4]): 5 (5=80-100%) | POST Application SETFA, percentage damage (five point scale) (Setaria faberi (SETFA) [5]): 4 (4=60-79%) | PRE Application IPOHE, percentage damage (five point scale) [6]: 4 (4=60-79%) | PRE Application AMARE, percentage damage (five point scale) [7]: 5 (5=80-100%) | POST Application IPOHE, percentage damage (five point scale) [8]: 5 (5=80-100%) | POST Application ALOMY, percentage damage (five point scale) [9]: 4 (4=60-79%) | PRE Application SETFA, percentage damage (five point scale) (Setaria faberi (SETFA) [10]): 3 (3=40-59%) | POST Application AMARE, percentage damage (five point scale) [11]: 5 (5=80-100%) | PRE Application ALOMY, percentage damage (five point scale) [12]: 5 (5=80-100%)

COCCOc1ccc(-n2c(=O)c(C(=O)Nc3nnnn3C)nn(C)c2=O)cc1 [Compound 1.023]
PRE Application ECHCG, percentage damage (five point scale) [1]: 5 (5=80-100%) | POST Application ECHCG, percentage damage (five point scale) [2]: 5 (5=80-100%) | POST Application SOLNI, percentage damage (five point scale) (Solanum nigrum (SOLNI) [3]): 5 (5=80-100%) | PRE Application SOLNI, percentage damage (five point scale) (Solanum nigrum (SOLNI) [4]): 5 (5=80-100%) | POST Application SETFA, percentage damage (five point scale) (Setaria faberi (SETFA) [5]): 5 (5=80-100%) | PRE Application IPOHE, percentage damage (five point scale) [6]: 5 (5=80-100%) | PRE Application AMARE, percentage damage (five point scale) [7]: 5 (5=80-100%) | POST Application IPOHE, percentage damage (five point scale) [8]: 5 (5=80-100%) | POST Application ALOMY, percentage damage (five point scale) [9]: 5 (5=80-100%) | PRE Application SETFA, percentage damage (five point scale) (Setaria faberi (SETFA) [10]): 5 (5=80-100%) | POST Application AMARE, percentage damage (five point scale) [11]: 5 (5=80-100%) | PRE Application ALOMY, percentage damage (five point scale) [12]: 5 (5=80-100%)

Cn1nnnc1NC(=O)c1nn(C)c(=O)n(-c2ccc(Cl)cc2)c1=O [Compound 1.024]
PRE Application ECHCG, percentage damage (five point scale) [1]: 5 (5=80-100%) | POST Application ECHCG, percentage damage (five point scale) [2]: 5 (5=80-100%) | POST Application SOLNI, percentage damage (five point scale) (Solanum nigrum (SOLNI) [3]): 5 (5=80-100%) | PRE Application SOLNI, percentage damage (five point scale) (Solanum nigrum (SOLNI) [4]): 5 (5=80-100%) | POST Application SETFA, percentage damage (five point scale) (Setaria faberi (SETFA) [5]): 5 (5=80-100%) | PRE Application IPOHE, percentage damage (five point scale) [6]: 5 (5=80-100%) | PRE Application AMARE, percentage damage (five point scale) [7]: 5 (5=80-100%) | POST Application IPOHE, percentage damage (five point scale) [8]: 5 (5=80-100%) | POST Application ALOMY, percentage damage (five point scale) [9]: 5 (5=80-100%) | PRE Application SETFA, percentage damage (five point scale) (Setaria faberi (SETFA) [10]): 5 (5=80-100%) | POST Application AMARE, percentage damage (five point scale) [11]: 5 (5=80-100%) | PRE Application ALOMY, percentage damage (five point scale) [12]: 5 (5=80-100%)

Cc1cccc(-n2c(=O)c(C(=O)Nc3nnnn3C)nn(C)c2=O)c1 [Compound 1.025]
PRE Application ECHCG, percentage damage (five point scale) [1]: 5 (5=80-100%) | POST Application ECHCG, percentage damage (five point scale) [2]: 5 (5=80-100%) | POST Application SOLNI, percentage damage (five point scale) (Solanum nigrum (SOLNI) [3]): 5 (5=80-100%) | PRE Application SOLNI, percentage damage (five point scale) (Solanum nigrum (SOLNI) [4]): 5 (5=80-100%) | POST Application SETFA, percentage damage (five point scale) (Setaria faberi (SETFA) [5]): 5 (5=80-100%) | PRE Application IPOHE, percentage damage (five point scale) [6]: 5 (5=80-100%) | PRE Application AMARE, percentage damage (five point scale) [7]: 5 (5=80-100%) | POST Application IPOHE, percentage damage (five point scale) [8]: 5 (5=80-100%) | POST Application ALOMY, percentage damage (five point scale) [9]: 5 (5=80-100%) | PRE Application SETFA, percentage damage (five point scale) (Setaria faberi (SETFA) [10]): 5 (5=80-100%) | POST Application AMARE, percentage damage (five point scale) [11]: 5 (5=80-100%) | PRE Application ALOMY, percentage damage (five point scale) [12]: 5 (5=80-100%)
